Data on one molecule can be found in US20250387357A1 (SpringWorks Therapeutics, Inc., priority 2024, published 2025).

A short description of data set [1]: Pharmacokinetic parameters and characteristics of mirdametinib (Table A). Details: species or system human. The following applies: in vivo.
The next data set relates to UGT and CES enzymes. In words: Metabolism, primary pathway. As to conditions: full wording over r33-r36: Metabolism involves glucuronidation and oxidation via UGT and CES enzymes.

Regarding `O=C(NOC[C@H](O)CO)c1ccc(F)c(F)c1Nc1ccc(I)cc1F` (single isomer, unassigned) [mirdametinib], in data set [1], the “Excretion: Radioactivity in feces” value is listed as “In feces: 27%”; the “Excretion: Radioactivity in urine” value is given as “In urine: 68%”; the “Excretion: Unchanged mirdametinib in urine” value is recorded as “In urine: 0.7%”; the “Excretion: Unchanged mirdametinib in urine and feces” value was “In urine and feces: 9%”. For the same molecule, in the data set with UGT and CES enzymes, the Metabolism primary pathway result is on record as “Metabolism involves”.
